Results: patent publication US20220362386A1, “LIQUID COMPOSITIONS COMPRISING A LEVODOPA AMINO ACID CONJUGATE AND USES THEREOF” (NeuroDerm, Ltd., priority 2019, published 2022)
Where a name gives a salt, the structure may show the parent alone. Read-outs that look alike come from different tables or passages of the source. Non-standard residues stand in square brackets, D forms with d. Residues, ends and D or L forms follow the SMILES beside them. Dopa = N[C@@H](Cc1ccc(O)c(O)c1)C(=O)O

Assays:
[1] = in vitro; details: human
[2] = In-vitro metabolism of LDAA compounds using liver microsomes; assay type: in vitro ADME, human; details: for half-life at 0.1 μM / microsomal CLint at 0.1 μM: both sexes, human, pooled human liver microsomes; for half-life at 0.1 μM: pH 7.4, 1.0E−07M, 0.1 mg/mL microsomal protein; for microsomal CLint at 0.1 μM: pH 7.4, calculated from the half-life; for microsomal CLint at 0.1 μM / % Compound Remaining 1st / % Compound Remaining 2nd / % Compound Remaining Mean: 1.0E−07M
In short: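 Compounds at 0.1 μM were incubated at 37° C with pooled mixed-gender human liver microsomes (0.1 mg/mL protein) in phosphate buffer pH 7.4 plus an NADPH-generating system for 0–60 min. Remaining parent was quantified by HPLC-MS/MS versus time zero; t1/2 came from first-order fits, and Clint = 0.693/(t1/2×protein concentration).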

[3] = Human blood stability test; assay type: in vitro ADME; parameters: key: slope of % decrease of remaining compound over time; higher = faster metabolism; details: slope of the percentage decrease of remaining compound; substrate 10 μM; 0-60 minutes
Procedure: The stability of several LDAA compounds in human blood was tested. The substrate concentration was 10 μM and the incubation time 0, 5, 15, 30 and 60 minutes.
The results are described in Table 19, wherein the results describe the Ke, i.e., the slope of the percentage decrease of the remaining amount of the compound, measured at each of the above time points, such that the higher the Ke the faster the metabolism.

[4] = In-vitro absorption, Caco-2 A-B permeability; assay type: in vitro ADME, human; details: human, Caco-2, pH 7.4, Caco-2 A-B, without verapamil; for Papp A→B at 60 min, 10 μM: 1.0E−05M
Procedure: (§1) Conditions may be adjusted when necessary.
(§2) D denotes donor and R is receiver. […] V is the volume of the donor or receiver.
(§3) The test was performed with and without verapamil, which is a permeation inhibitor, and the results are presented in Tables 22 (without verapamil) and 34 (with verapamil).

[5] = tested on: P-gp; experiment: In-vitro absorption, Caco-2 A-B permeability; assay type: in vitro ADME, human; details: human, Caco-2, pH 7.4, with verapamil 100 μM on both the A and B sides, Caco-2 A-B, in the presence of verapamil
Procedure: as §1, §2, §3

[6] = Caco-2, pH 7.4, Percent Recovery 1st
[7] = Caco-2, pH 7.4, Percent Recovery 2nd
[8] = Caco-2, pH 7.4, Percent Recovery Mean
[9] = Caco-2, pH 7.4, Permeability 1st
[10] = Caco-2, pH 7.4, Permeability 2nd
[11] = Caco-2, pH 7.4, Permeability Mean
[12] = read-out: Half-Life (minute) 1st
[13] = read-out: Half-Life (minute) 2nd
[14] = read-out: Half-Life (minute) Mean
[15] = read-out: Percent Recovery Mean

Row | SMILES | recovery at 40 min, 10 μM [1, 6] [%] | recovery at 40 min, 10 μM [1, 7] [%] | recovery at 40 min, 10 μM [1, 8] [%] | Papp B→A at 40 min, 10 μM [1, 9] [×10⁻⁶ cm/s] | Papp B→A at 40 min, 10 μM [1, 10] [×10⁻⁶ cm/s] | Papp B→A at 40 min, 10 μM [1, 11] [×10⁻⁶ cm/s] | half-life at 0.1 μM [2, 12] [min] | half-life at 0.1 μM [2, 13] [min] | half-life at 0.1 μM [2, 14] [min] | microsomal CLint at 0.1 μM [2] [µL/min/mg] | % Compound Remaining 1st ([2]; incubation time 0 minutes) [%] | % Compound Remaining 2nd ([2]; incubation time 0 minutes) [%] | % Compound Remaining Mean ([2]; incubation time 0 minutes) [%] | % Compound Remaining 1st ([2]; incubation time 15 minutes) | % Compound Remaining 2nd ([2]; incubation time 15 minutes) | % Compound Remaining Mean ([2]; incubation time 15 minutes) [%] | % Compound Remaining 1st ([2]; incubation time 30 minutes) | % Compound Remaining 2nd ([2]; incubation time 30 minutes) [%] | % Compound Remaining Mean ([2]; incubation time 30 minutes) [%] | % Compound Remaining 1st ([2]; incubation time 45 minutes) [%] | further results
1 | N[C@@H](Cc1ccc(O)c(O)c1)C(=O)N[C@@H](Cc1ccc(O)cc1)C(=O)O [LD-Tyr TFA salt, Levodopa Tyrosine TFA Salt] (H-[Dopa]-Tyr-OH) | 82 | 97 | 89 | 0.01 | 0.01 | < 0.01 | 112 | 315 | > 60 | < 116 | 100 | 100 | 100 | 90.7% | {121.6% | 91 | 102.5% | 110.1 | 106 | 71.4 | % Compound Remaining 2nd ([2]; incubation time 45 minutes): 104.1%; % Compound Remaining Mean ([2]; incubation time 45 minutes): 88%; % Compound Remaining 1st ([2]; incubation time 60 minutes): 70.8%; % Compound Remaining 2nd ([2]; incubation time 60 minutes): 84.5%; % Compound Remaining Mean ([2]; incubation time 60 minutes): 78%; Ke [3]: 0.0426; Papp A→B at 60 min, 10 μM ([4]; read-out: Permeability 1st): 0.05 ×10⁻⁶ cm/s; Papp A→B at 60 min, 10 μM ([4]; read-out: Permeability 2nd): 0.04 ×10⁻⁶ cm/s; recovery at 60 min, 10 μM ([4]; read-out: Percent Recovery 1st): 45%; recovery at 60 min, 10 μM ([4]; read-out: Percent Recovery 2nd): 39%; recovery at 60 min, 10 μM [4, 15]: 42%; recovery at 60 min, 10 μM ([5]; read-out: Percent Recovery 1st): 40%; recovery at 60 min, 10 μM ([5]; read-out: Percent Recovery 2nd): 39%; recovery at 60 min, 10 μM [5, 15]: 40%
2 | N[C@@H](CSC[C@H](NC(=O)[C@@H](N)Cc1ccc(O)c(O)c1)C(=O)O)C(=O)O (single isomer, unassigned; peak 2) [LD-LA2 TFA salt, Levodopa Lanthionine Peak 2 TFA Salt] | 79 | 69 | 74 | 13 | 13.6 | 13.3 | 75.7 | 110 | > 60 | < 116 | 100 | 100 | 100 | 122.9% | 103.5% | 113 | 105.6% | 94.5 | 100 | 97.5 | % Compound Remaining 2nd ([2]; incubation time 45 minutes): 102%; % Compound Remaining Mean ([2]; incubation time 45 minutes): 100%; % Compound Remaining 1st ([2]; incubation time 60 minutes): 56.5%; % Compound Remaining 2nd ([2]; incubation time 60 minutes): 62.9%; % Compound Remaining Mean ([2]; incubation time 60 minutes): 60%; Ke [3]: 0.0128; Papp A→B at 60 min, 10 μM ([4]; read-out: Permeability 1st): 20.2 ×10⁻⁶ cm/s; Papp A→B at 60 min, 10 μM ([4]; read-out: Permeability 2nd): 17.8 ×10⁻⁶ cm/s; Papp A→B at 60 min, 10 μM ([4]; read-out: Permeability Mean): 19 ×10⁻⁶ cm/s; recovery at 60 min, 10 μM ([4]; read-out: Percent Recovery 1st): 86%; recovery at 60 min, 10 μM ([4]; read-out: Percent Recovery 2nd): 91%; recovery at 60 min, 10 μM [4, 15]: 89%; recovery at 60 min, 10 μM ([5]; read-out: Percent Recovery 1st): 89%; recovery at 60 min, 10 μM ([5]; read-out: Percent Recovery 2nd): 87%; recovery at 60 min, 10 μM [5, 15]: 88%
3 | N=C(N)NCCC[C@H](NC(=O)[C@@H](N)Cc1ccc(O)c(O)c1)C(=O)O [LD-Arg TFA salt, Levodopa Arginine TFA Salt] | 82 | 89 | 85 | 0.03 | 0.02 | < 0.03 | 42.9 | 40.5 | 42 | 166 | 100 | 100 | 100 | 109.7% | 111.8% | 111 | 84.2% | 90.9 | 88 | 70 | % Compound Remaining 2nd ([2]; incubation time 45 minutes): {52.4} %; % Compound Remaining Mean ([2]; incubation time 45 minutes): 70%; % Compound Remaining 1st ([2]; incubation time 60 minutes): 37.3%; % Compound Remaining 2nd ([2]; incubation time 60 minutes): 38.6%; % Compound Remaining Mean ([2]; incubation time 60 minutes): 38%; Ke [3]: 0.0919; Papp A→B at 60 min, 10 μM ([4]; read-out: Permeability 1st): 0.1 ×10⁻⁶ cm/s; Papp A→B at 60 min, 10 μM ([4]; read-out: Permeability 2nd): 0.09 ×10⁻⁶ cm/s; Papp A→B at 60 min, 10 μM ([4]; read-out: Permeability Mean): < 0.1 ×10⁻⁶ cm/s; recovery at 60 min, 10 μM ([4]; read-out: Percent Recovery 1st): 26%; recovery at 60 min, 10 μM ([4]; read-out: Percent Recovery 2nd): 26%; recovery at 60 min, 10 μM [4, 15]: 26%; recovery at 60 min, 10 μM ([5]; read-out: Percent Recovery 1st): 25%; recovery at 60 min, 10 μM ([5]; read-out: Percent Recovery 2nd): 26%; recovery at 60 min, 10 μM [5, 15]: 25%
4 | N[C@@H](CSC[C@@H](NC(=O)[C@@H](N)Cc1ccc(O)c(O)c1)C(=O)O)C(=O)O (single isomer, unassigned; peak 1) [LD-LA1 TFA salt, Levodopa Lanthionine Peak 1 TFA Salt] | 80 | 86 | 83 | 0.28 | 0.22 | 0.3 | 139 | 87.3 | > 60 | < 116 | 100 | 100 | 100 | {129.4% | 110.4% | 110 | {125.6% | 77.6 | 78 | 79.7 | % Compound Remaining 2nd ([2]; incubation time 45 minutes): 77.9%; % Compound Remaining Mean ([2]; incubation time 45 minutes): 79%; % Compound Remaining 1st ([2]; incubation time 60 minutes): 74.2%; % Compound Remaining 2nd ([2]; incubation time 60 minutes): 65.6%; % Compound Remaining Mean ([2]; incubation time 60 minutes): 70%; Ke [3]: −0.011; Papp A→B at 60 min, 10 μM ([4]; read-out: Permeability 1st): 0.2 ×10⁻⁶ cm/s; Papp A→B at 60 min, 10 μM ([4]; read-out: Permeability 2nd): 0.21 ×10⁻⁶ cm/s; Papp A→B at 60 min, 10 μM ([4]; read-out: Permeability Mean): 0.2 ×10⁻⁶ cm/s; recovery at 60 min, 10 μM ([4]; read-out: Percent Recovery 1st): 82%; recovery at 60 min, 10 μM ([4]; read-out: Percent Recovery 2nd): 77%; recovery at 60 min, 10 μM [4, 15]: 79%; recovery at 60 min, 10 μM ([5]; read-out: Percent Recovery 1st): 58%; recovery at 60 min, 10 μM ([5]; read-out: Percent Recovery 2nd): 67%; recovery at 60 min, 10 μM [5, 15]: 62%
